Data: article PMC8429736, “Pharmacological characterization of mutant huntingtin aggregate-directed PET imaging tracer candidates” (Scientific Reports, 2021)
Where two headings read alike, the source gives them in different places.

Assays:
[1] = target: Q46 aggregates; test: RBA saturation binding, Q46 aggregates; conditions: tritiated compound; mean ± SD
Method: (§1) For N-terminal tag cleavage, proteins at 30 µM in 2 mL reaction tubes were incubated with 150 µg/mL thrombin (Sigma, T4648) in 50 mM Tris (pH 8.0), 150 mM NaCl, 2 mM CaCl2 for 16 h at 37 °C.
For radioligand binding assays (RBA) (see below) and radiometric filter trap assays (RAFTA) (see below), aggregates were separated by centrifugation (5 min 16,000×g) and resuspended with assay buffer (50 mM Tris pH 8.0, 150 mM NaCl) (see Supplementary Fig. S2B). […]
Samples were then transferred onto a 96-well GF/B filter plate (Perkin Elmer, #6005177) using a Filtermate Harvester, aspirated by vacuum and wells washed twice with 200 µL PBS. […] The tops of the plates were sealed, and the plates were incubated for 15 min in the dark and counted in a TopCount or MicroBeta2 reader (both Perkin Elmer).
For saturation binding experiments, aggregate lysate preparation and final concentration in the assay, assay buffer, incubation times and plate processing were identical to the competition format. […] Specific binding (SB) was calculated as full binding minus full competition (in the presence of excess unlabeled ligand) and a hyperbolic mono-phasic fit was applied using GraphPad Prism to determine Kd and Bmax.

[2] = target: beta amyloid plaques in human AD brain sections (Homo sapiens, UniProt P05067); test: ARG, human post-mortem AD frontal cortex sections; type: binding; conditions: 1 nM radioligand
Sequence of beta amyloid plaques in human AD brain sections (P05067 672-713 limits assumed): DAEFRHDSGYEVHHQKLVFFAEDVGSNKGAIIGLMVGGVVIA

[3] = system: mHTT aggregates in HOM zQ175 brain sections; test: In vitro ARG, single concentration, HOM zQ175 brain sections; type: binding, mouse; conditions: 0.5 nM
Method: (§2) Twenty µm-thick sections were prepared from brains of disease mouse models and WT mice or human post-mortem brain samples by using a cryostat, mounted on superfrost slides and stored at -80 °C for a maximum of 2 weeks. On the day of the experiment, slides were adapted to room temperature for 30 min and then equilibrated by immersion into assay buffer (50 mM Tris–HCl pH 7.4; 120 mM NaCl; 5 mM KCl; 2 mM CaCl2; 1 mM MgCl2) for 20 min at room temperature.
Radioligand solutions were prepared in assay buffer. Optimal radioligand concentrations were determined in advance based on signal-to-background ratio obtained in mouse or human brain tissue. The solutions were mixed in a Coplin jar (Sigma, S5516-6EA) by gently shaking at 175 rpm for 10 min at room temperature. Sections were incubated by immersion into assay buffer containing either only radioligand (total binding or TB) or radioligand plus 10 µM of unlabeled compound (non-specific binding or NSB) for 60 min at room temperature. Afterwards slides were washed three times for 10 min with ice-cold washing buffer (50 mM Tris–HCl (pH 7.4)) at 4 °C and dipped for three seconds in ice-cold distilled water to remove buffer salts. The slides were dried for 3 h at 30 °C and exposed for 96 h to a Tritium Phosphor Screen (GE Healthcare, Fuji BAS-TR 2025 E) Stored radiation energy on the screen was scanned using a Phosphorimager (GE Healthcare, Typhoon FLA 7000). Densitometric data analysis of radioligand binding was performed using the MCID Analysis 7.1 software (Interfocus Imaging Ltd.). Radioisotope concentration standards (American Radiolabeled Chemicals, ART 0123C and ART 0123B) were exposed with each specimen to enable conversion of density values into tissue-equivalent ligand concentrations (e.g., fmol/mg tissue). A standard curve was created to relate the system´s internal relative optical density measurement (ROD; an inverse logarithmic function of gray level values) to the set of standard values (e.g., isotope concentration). The standard´s isotope concentration (e.g., nCi/mg) is therefore converted into tissue-equivalent ligand concentrations (e.g., fmol/mg tissue) by referring to the radioligand´s specific activity (e.g., Ci/mmol) and including decay-correction. After phosphor screen exposure the human brain sections were stained for 4 min with 0.1% toluidine blue dye solution (Sigma-Aldrich) and rinsed twice in distilled water. To differentiate gray and white matter, the slides were decolorized with 70% ethanol (Merck) for 2–5 min followed by rinse in distilled water. Gray matter appears as gray color and white matter as bluish.

[4] = ARG, human post-mortem CTRL frontal cortex sections; type: binding
[5] = design: method as in PMID 34351166, PMID 32662649; conditions: cited from earlier work
[6] = target: mHTT aggregates in HOM zQ175 HD mouse brain sections; test: In vitro autoradiography (ARG) saturation binding, HOM zQ175 brain sections; conditions: HOM zQ175 12 months, cortex
Method: as §2
Radioligand solutions were prepared in assay buffer. Optimal radioligand concentrations were determined in advance based on signal-to-background ratio obtained in mouse or human brain tissue. The solutions were mixed in a Coplin jar (Sigma, S5516-6EA) by gently shaking at 175 rpm for 10 min at room temperature. Sections were incubated by immersion into assay buffer containing either only radioligand (total binding or TB) or radioligand plus 10 µM of unlabeled compound (non-specific binding or NSB) for 60 min at room temperature. Afterwards slides were washed three times for 10 min with ice-cold washing buffer (50 mM Tris–HCl (pH 7.4)) at 4 °C and dipped for three seconds in ice-cold distilled water to remove buffer salts. […]

[7] = target: T1, Exon1-Q46 aggregates (Homo sapiens, UniProt P42858, INS38QQQQQQQQQQQQQQQQQQQQQQQQQ); test: RBA saturation binding, recombinant Exon1-Q46 aggregates
T1 construct: MBP-HTT(1-89)Q46-His(6x); MBP (N, cleaved yes); made in house; host or cells: E. coli BL21 (DE3)
T1 sequence (P42858 with tags, fused parts or gaps with the stated changes): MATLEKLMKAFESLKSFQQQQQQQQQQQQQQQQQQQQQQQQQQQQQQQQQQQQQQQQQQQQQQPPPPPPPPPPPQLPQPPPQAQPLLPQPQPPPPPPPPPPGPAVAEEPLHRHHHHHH
Method: as §1
For radioligand binding assays (RBA) (see below) and radiometric filter trap assays (RAFTA) (see below), aggregates were separated by centrifugation (5 min 16,000×g) and resuspended with assay buffer (50 mM Tris pH 8.0, 150 mM NaCl) (see Supplementary Fig. S2B). Protein concentrations always refer to the starting peptide concentrations (i.e., peptide concentration applied in the aggregation reaction before thrombin cleavage) since post-cleaved aggregates are heterogeneous and the number of peptides per aggregate is unknown.
Samples were then transferred onto a 96-well GF/B filter plate (Perkin Elmer, #6005177) using a Filtermate Harvester, aspirated by vacuum and wells washed twice with 200 µL PBS. After drying the filter plates for 1 h at 55 °C the back of the plate was sealed with aluminum cover and 30 µL of scintillation fluid (Perkin Elmer, #6013641) per well was added. The tops of the plates were sealed, and the plates were incubated for 15 min in the dark and counted in a TopCount or MicroBeta2 reader (both Perkin Elmer).
For saturation binding experiments, aggregate lysate preparation and final concentration in the assay, assay buffer, incubation times and plate processing were identical to the competition format. Radioligand was titrated up to 100 nM. Raw cpm were converted into nM using a calibration line of total added radioligand without washing and filtering (spiked onto the filter plate and dried) (e.g., X) and normalized to the concentration of protein (e.g., Y) to finally obtain […] (e.g., X/Y). Specific binding (SB) was calculated as full binding minus full competition (in the presence of excess unlabeled ligand) and a hyperbolic mono-phasic fit was applied using GraphPad Prism to determine Kd and Bmax.

Compound: COc1ccc(COc2ccc3oc(-c4ccc(=O)n(C)n4)nc3c2)nc1 [CHDI-180]
- Kd [1]: 7.7 ± 3.3 nM
- binding in AD post-mortem brain tissues [2]: 5.6 ± 0.7 fmol/mg
- binding in AD post-mortem brain tissues ([2]; gray matter): 5.6 ± 0.7 fmol/mg tissue
- NSB ([3]; 3 month HOM Q175, CTX): 1.3 ± 2.2 fmol/mg
- SB ([3]; 3 month HOM Q175, CTX): 4.3 ± 2.3 fmol/mg
- TB ([3]; 3 month HOM Q175, CTX): 5.6 ± 0.3 fmol/mg
- NSB ([3]; 3 month HOM Q175, HPC): 0.3 ± 0.3 fmol/mg
- SB ([3]; 3 month HOM Q175, HPC): 4.8 ± 0.4 fmol/mg
- TB ([3]; 3 month HOM Q175, HPC): 5.1 ± 0.3 fmol/mg
- NSB ([3]; 3 month HOM Q175, STR): 0.4 ± 0.4 fmol/mg
- SB ([3]; 3 month HOM Q175, STR): 3.5 ± 0.3 fmol/mg
- TB ([3]; 3 month HOM Q175, STR): 3.9 ± 0.5 fmol/mg
- NSB ([3]; 6 month HOM Q175, CTX): 0.2 ± 0.4 fmol/mg
- SB ([3]; 6 month HOM Q175, CTX): 24.4 ± 1.4 fmol/mg
- TB ([3]; 6 month HOM Q175, CTX): 24.6 ± 1.0 fmol/mg
- NSB ([3]; 6 month HOM Q175, HPC): 0.1 ± 0.0 fmol/mg
- SB ([3]; 6 month HOM Q175, HPC): 25.0 ± 1.6 fmol/mg
- TB ([3]; 6 month HOM Q175, HPC): 25.1 ± 1.6 fmol/mg
- NSB ([3]; 6 month HOM Q175, STR): 0.3 ± 0.2 fmol/mg
- SB ([3]; 6 month HOM Q175, STR): 15.8 ± 2.7 fmol/mg
- TB ([3]; 6 month HOM Q175, STR): 16.1 ± 2.9 fmol/mg
- NSB ([3]; 9 month HOM Q175, CTX): 0.9 ± 0.8 fmol/mg
- SB ([3]; 9 month HOM Q175, CTX): 48.8 ± 8.3 fmol/mg
- TB ([3]; 9 month HOM Q175, CTX): 49.7 ± 7.4 fmol/mg
- NSB ([3]; 9 month HOM Q175, HPC): 0.2 ± 0.2 fmol/mg
- SB ([3]; 9 month HOM Q175, HPC): 41.3 ± 2.2 fmol/mg
- TB ([3]; 9 month HOM Q175, HPC): 41.5 ± 2.4 fmol/mg
- NSB ([3]; 9 month HOM Q175, STR): 0.4 ± 0.4 fmol/mg
- SB ([3]; 9 month HOM Q175, STR): 28.4 ± 2.4 fmol/mg
- TB ([3]; 9 month HOM Q175, STR): 28.8 ± 2.7 fmol/mg
- NSB ([3]; 12 month HOM Q175, CTX): 0.8 ± 0.7 fmol/mg
- SB ([3]; 12 month HOM Q175, CTX): 70.2 ± 10.5 fmol/mg
- TB ([3]; 12 month HOM Q175, CTX): 70.9 ± 11.0 fmol/mg
- NSB ([3]; 12 month HOM Q175, HPC, n=2): 0.4 ± 0.7 fmol/mg
- NSB ([3]; 12 month HOM Q175, STR): 0.4 ± 0.3 fmol/mg
- SB ([3]; 12 month HOM Q175, STR): 41.3 ± 2.8 fmol/mg
- TB ([3]; 12 month HOM Q175, STR): 41.6 ± 3.1 fmol/mg
- NSB in CTRL brain sections ([4]; 1 nM radioligand plus cold compound): below 0.5 fmol/mg tissue
- binding to frontal cortical sections, CTRL tissue ([4]; 1 nM radioligand, gray matter): 0.8 ± 0.3 fmol/mg tissue
- plasma, microsomal, and hepatocyte stability [5]: acceptable
- Kd [6]: 1.1 nM
- ARG Bmax ([6]; per mg tissue): 163.0 fmol/mg
- Bmax ([7]; representative single experiment (Fig. 2A)): 0.3 nmol/μmol
- Kd ([7]; representative single experiment (Fig. 2A), read-out: Kd): 3.2 nM
- Kd ([7]; tritiated compound, mean ± SD, read-out: Kd Exon1-Q46): 2.6 ± 0.9 nM
